Test results taken from ChEMBL document CHEMBL2069301, “Exploration of the structure-activity relationship of the diaryl anilide class of ligands for translocator protein--potential novel positron emitting tomography imaging agents” (Bioorg Med Chem Lett, 2012).

What was measured:
[1] = target: Translocator protein (Rattus norvegicus, UniProt P16257); experiment: Displacement of [3H]PK11195 from TSPO in Wistar rat heart incubated for 15 mins
[2] = test system: Brain; experiment: Stability in naive Wistar rat brain assessed as parent compound level at 1 to 3 MBq, iv using [18F] labeled compound measured 60 mins post dose; assay type: ADME, organism-based; settings: in vivo, 1 h
[3] = test system: Rattus norvegicus; experiment: Biodistribution in naive Wistar rat whole brain at 1 to 3 MBq, iv using [18F] labeled compound measured 2 mins post dose; assay type: ADME, organism-based; settings: in vivo
[4] = test system: Striatum; experiment: Ratio of biodistribution in striatum at 2 mins post dose to biodistribution in striatum post 30 mins in naive Wistar rat at 1 to 3 MBq, iv using [18F] labeled compound; assay type: ADME, organism-based; settings: in vivo
[5] = test system: Rattus norvegicus; experiment: Biodistribution in naive Wistar rat olfactory bulbs at 1 to 3 MBq, iv using [18F] labeled compound measured 30 mins post dose; assay type: ADME, organism-based, Olfactory bulb; settings: in vivo, 0.5 h
[6] = Lipophilicity, log D of the compound at pH 7.4; assay type: physicochemical; settings: buffer
[7] = test system: Striatum; experiment: Ratio of biodistribution in olfactory bulbs to striatum of in naive Wistar rat at 1 to 3 MBq, iv using [18F] labeled compound measured 30 mins post dose; assay type: ADME, organism-based; settings: in vivo, 0.5 h
[8] = Lipophilicity, log P of the compound by HPLC method; assay type: physicochemical

Sequence of Translocator protein (P16257 whole entry, looked up): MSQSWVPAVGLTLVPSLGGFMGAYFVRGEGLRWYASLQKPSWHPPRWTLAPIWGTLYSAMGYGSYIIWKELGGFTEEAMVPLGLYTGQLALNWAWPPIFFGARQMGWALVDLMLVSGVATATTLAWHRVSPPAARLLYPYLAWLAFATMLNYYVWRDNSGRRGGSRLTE

Compound	Ki [1] [nM]	Stability [2] [%]	Drug uptake [3] [% ID/g]	Ratio [4]	Drug uptake [5] [% ID/g]	logD ([6]; read-out: logD)	Ratio [7]	logP [8]	logD [6]
O=C(CF)N(Cc1cccc2c1OCO2)c1ccccc1Oc1ccccc1	2.03	92	0.65	4.77	0.37	2.8	2.85	–	–
CCC(C)N([11CH3])C(=O)c1cc2ccccc2c(-c2ccccc2Cl)n1 (centres undefined)	–	–	0.28	–	–	–	–	–	–
CC(=O)N(Cc1cccn(CCF)c1=O)c1ccccc1Oc1ccccc1	105	–	–	–	–	2.2	–	–	–
COc1ccc(OC)c(CN(C(=O)CF)c2cc(F)ccc2OC(C)C)c1	9.84	–	–	–	–	–	–	–	–
COc1ccc(OC)c(CN(C(=O)CF)c2cncnc2Oc2ccccc2)c1	63	–	–	–	–	–	–	2.79	–
CC1(C)Cc2cccc(CN(C(=O)CF)c3ccccc3Oc3ccccc3)c2O1	2.66	–	0.58	3.8	0.23	2.6	1.53	–	–
COc1ccccc1CN(C(=O)CF)c1cccnc1Oc1ccccc1	125	–	0.55	4.82	0.15	1.51	1.36	–	–
CC(=O)N(Cc1ccccc1OCCF)c1cccnc1Oc1ccccc1	–	–	0.45	2.85	0.4	1.69	3.08	–	–
O=C(CF)N(Cc1cccc2c1OCC2)c1ccccc1Oc1ccccc1	0.31	91	0.81	2.52	0.68	2.68	2.52	–	–
COc1ccc(OC)c(CN(C(C)=O)c2cc(F)ccc2Oc2ccccc2)c1	0.43	–	–	–	–	–	–	–	–
COc1ncccc1CN(C(=O)CF)c1ccccc1Oc1ccccc1	–	–	0.66	3.92	0.33	2.38	2.54	–	–
COc1ccc(OC)c(CN(C(=O)CF)c2ccccc2OC2CCCC2)c1	0.46	45	0.53	5.56	0.23	3.8	2.56	–	–
CCC(C)N(C)C(=O)c1cc2ccccc2c(-c2ccccc2Cl)n1 (centres undefined) [PK-11195]	–	–	–	–	–	3.73	–	–	–
COc1ccc(OCCF)c(CN(C(C)=O)c2cccnc2Oc2ccccc2)c1	7.28	–	0.25	4.4	0.26	1.58	5.2	–	–
COc1ccc(OC)c(CN(C(=O)C[18F])c2ccccc2Oc2ccccc2)c1	–	91	0.74	–	–	–	–	–	–
COc1ccc(OC)c(CN(C(=O)CF)c2ccccc2Oc2ccccc2)c1	–	–	–	–	–	–	–	–	2.36
CC(=O)N(Cc1cccnc1OCCF)c1ccccc1Oc1ccccc1	–	–	–	–	–	2.6	–	–	–
O=C(CF)N(Cc1cccc2c1OCCO2)c1ccccc1Oc1ccccc1	1.14	82	0.72	3.88	0.4	1.96	2.5	–	–
COc1ncccc1CN(C(=O)CF)c1cc(F)ccc1Oc1ccccc1	3.52	72	0.84	4.39	0.5	2.3	2.78	–	–
COc1ccccc1CN(C(=O)CF)c1ccccc1OC1CCCC1	6.65	62	0.77	5.46	0.42	2.35	3.23	–	–
COc1ccc(OC)c(CN(C(=O)CF)c2ccccc2S(=O)(=O)c2ccccc2)c1	3430	–	–	–	–	–	–	–	–
COc1ccc(OC)c(CN(C(=O)CF)c2ccccc2Sc2ccccc2)c1	4.48	–	0.61	6.22	0.17	–	1.88	–	–
COc1ccc(OC)c(CN(C(=O)CF)c2cccc3cc(C)oc23)c1	6.38	80	0.68	6.3	0.35	–	3.5	–	–
O=C(CF)N(Cc1cccs1)c1ccccc1Oc1ccccc1	163	–	–	–	–	1.98	–	–	–
COc1ccc(OC)c(CN(C(=O)CF)c2cc(F)ccc2Oc2ccccc2)c1	0.05	–	0.73	1.71	0.7	2.06	2.06	–	–
Cc1ccc(CN(C(=O)CF)c2ccccc2Oc2ccccc2)o1	72.1	–	–	–	–	2.19	–	–	–
COc1ccc(OC)c(CN(C(=O)CF)c2ccccc2OC(C)C)c1	3.8	–	–	–	–	2.62	–	–	–
COc1ccccc1CN(C(=O)CF)c1cnccc1Oc1ccccc1	2.18	52	–	–	–	–	–	2.72	–
